Broadly, the CC50 is the concentration that lowers cell viability or growth by half. A higher CC50 goes with lower toxicity to the cells. Broadly, the EC50 is the midpoint of the concentration-response curve.

From patent publication US8536187B2 (Gilead Sciences, Inc., priority 2008, dated 2013) come the findings set out here.

The nature of data set [1]: CC50 assay (CellTiter-Glo) in Huh-7 HCV replicon cells. The format is cell-based. The note with it: human, Table 2, 3 days incubation. The method, boiled down: (§1)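 Cytotoxicity (CC50) read by CellTiter-Glo luminescence after 10 min, and antiviral EC50 by luciferase signal after 30 min lysis with substrate, both at room temperature. Preceding step: 3-day exposure of 6000 Huh-7 HCV replicon cells per well to compound dilution series at 37° C, 5% CO2, in 0.5% DMSO.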
On the technique in general: In ATP-based viability assays light output follows the ATP content of the culture.

The subject of data set [2] is HCV replicon in human hepatoma Huh-7 cell line. Kind of data set: Anti-HCV replicon assay, EC50 (luciferase luminescence). The class given is cell-based. The note with it: Hepatitis C virus, Huh-7, 72 h. The method, boiled down: as §1

Where only a bound is given, the exact number is not on record here.

In data set [1], `CS(=O)(=O)c1cc(-c2ccc3nc(NCc4ccc(-n5cncn5)cc4)nc(OC4CC4)c3n2)ccc1OC(F)F` [Example 192, N-(4-(1H-1,2,4-triazol-1-yl)benzyl)-4-cyclopropoxy-6-(4-(difluoromethoxy)-3-(methylsulfonyl)phenyl)pyrido [3,2-d]pyrimidin-2-amine] had a CC50 at 3 days of 1 to 10 µM. The molecule also came in with a concentration for a half-maximal effect (EC50) in data set [2] below 0.1 µM.
On the same counts, the results for `NS(=O)(=O)c1cc(Cl)cc(CNc2nc(NC3(C(F)(F)F)CC3)c3nc(-c4ccc(NC(=O)C5(C(F)(F)F)CC5)cc4)ccc3n2)c1` [Example 48, 3-chloro-5-((6-(4-(1-(trifluoromethyl)cyclopropyl-carboxamido)phenyl)-4-(1-(trifluoromethyl)cyclopropyl-amino)pyrido[3,2-d]pyrimidin-2-ylamino)methyl)benzene-sulfonamide] are 1 to 10 µM and below 0.1 µM.
For `CS(=O)(=O)c1cccc(-c2ccc3nc(NCc4ccc(-n5cncn5)nc4)nc(NCC(F)(F)F)c3n2)c1` [Example 184, N^2-((6-(1H-1,2,4-triazol-1-yl)pyridin-3-yl)methyl)-6-(3-(methylsulfonyl)phenyl)-N^4-(2,2,2-trifluoroethyl)pyrido [3,2-d]pyrimidine-2,4-diamine] the same measures were 1 to 10 µM and below 0.1 µM.
In turn, `NS(=O)(=O)c1ccc(CNc2nc(NC3(C(F)(F)F)CC3)c3nc(-c4cccc(C(F)(F)F)c4)ccc3n2)cc1` [Example 80, 4-((4-(1-(trifluoromethyl)cyclopropylamino)-6-(3-(trifluoromethyl)phenyl)pyrido [3,2-d]pyrimidin-2-ylamino)methyl)benzenesulfonamide] displayed a half-maximal cytotoxic concentration (CC50) at 3 days in data set [1] of 1 to 10 µM. In data set [2], this molecule showed an EC50 of 0.25 to 2 µM.
On the same counts, the results for `COCc1ccc(-c2ccc3nc(NCc4ccc(S(N)(=O)=O)cc4)nc(NCC(F)(F)F)c3n2)cc1S(C)(=O)=O` [Example 146, 4-((6-(4-(methoxymethyl)-3-(methylsulfonyl)phenyl)-4-(2,2,2-trifluoroethylamino)pyrido[3,2-d]pyrimidin-2-ylamino)methyl)benzene-sulfonamide] are above 10 µM and below 0.1 µM.
Take `CS(=O)(=O)c1cc(-c2ccc3nc(NCc4ccc(-n5cncn5)cc4)nc(NCC(F)(F)F)c3n2)ccc1OC(F)F` [Example 175, N^2-(4-(1H-1,2,4-triazol-1-yl)benzyl)-6-(4-(difluoro-methoxy)-3-(methylsulfonyl)phenyl)-N^4-(2,2,2-trifluoroethyl) pyrido[3,2-d]pyrimidine-2,4-diamine]: the 50% cytotoxic concentration (CC50) at 3 days in data set [1] is above 10 µM. Besides, the 50% effective concentration (EC50) in data set [2] is below 0.1 µM.
In turn, `CS(=O)(=O)c1cccc(-c2ccc3nc(NCC(O)CO)nc(NCC(F)(F)F)c3n2)c1` (stereo not shown) [Example 158, 3-(6-(3-(methylsulfonyl)phenyl)-4-(2,2,2-trifluoroethylamino)pyrido[3,2-d]pyrimidin-2-ylamino)propane-1,2-diol] yielded a CC50 at 3 days in data set [1] above 10 µM. For the same molecule, the 50% effective concentration (EC50) in data set [2] was in the range of 0.25 to 2 µM.
On to `C[C@@H](Nc1nc(OC2CC2)c2nc(-c3ccc(OC(F)F)c(S(C)(=O)=O)c3)ccc2n1)c1ccc(S(N)(=O)=O)cc1` [Example 185, 4-((R)-1-(4-cyclopropoxy-6-(4-(difluoromethoxy)-3-(methylsulfonyl)phenyl)pyrido [3,2-d]pyrimidin-2-ylamino)ethyl)benzenesulfonamide], for which the half-maximal cytotoxic concentration (CC50) at 3 days in data set [1] is above 10 µM. In addition, in data set [2], the EC50 is 0.1 to 0.25 µM.
Regarding `NS(=O)(=O)c1cc(Cl)cc(CNc2nc(NC3(C(F)(F)F)CC3)c3nc(-c4ccc(C(=O)NC5(C(F)(F)F)CC5)cc4)ccc3n2)c1` [Example 95, 3-chloro-5-((6-(4-(1-(trifluoromethyl)cyclopropyl-aminocarbonyl)phenyl)-4-(1-(trifluoromethyl)cyclopropyl-amino)pyrido[3,2-d]pyrimidin-2-ylamino)methyl)benzene-sulfonamide], the 50% cytotoxic concentration (CC50) at 3 days in data set [1] lay in the range of 1 to 10 µM. The molecule further gave an EC50 in data set [2] below 0.1 µM.
On the same counts, the results for `COc1ccc(-c2ccc3nc(NCc4ccc(S(N)(=O)=O)cc4)nc(NCC(F)(F)F)c3n2)cc1S(N)(=O)=O` [Example 225, 4-((6-(4-methoxy-3-(aminosulfonyl)phenyl)-4-(2,2,2-trifluoroethylamino)pyrido[3,2-d]pyrimidin-2-ylamino)methyl)benzene-sulfonamide] are above 10 µM and below 0.1 µM.
`C[C@H](Cn1cncn1)Nc1nc(NCC(F)(F)F)c2nc(-c3cccc(S(C)(=O)=O)c3)ccc2n1` [Example 168, N^2-((R)-1-(1H-1,2,4-triazol-1-yl)propan-2-yl)-6-(3-(methylsulfonyl)phenyl)-N^4-(2,2,2-trifluoroethyl)pyrido [3,2-d]pyrimidine-2,4-diamine] gave a CC50 at 3 days in data set [1] above 10 µM. The molecule further came in with a 50% effective concentration (EC50) in data set [2] of 0.1 to 0.25 µM.
On the same counts, the results for `NS(=O)(=O)c1ccc(CNc2nc(NC3(C(F)(F)F)CC3)c3nc(-c4cccc(N5CCCS5(=O)=O)c4)ccc3n2)cc1` [Example 51, 4-((6-(3-(1,1-dioxo-isothiazolidin-2-yl)phenyl)-4-(1-(trifluoromethyl)cyclopropyl-amino)pyrido[3,2-d]pyrimidin-2-ylamino)methyl)benzene-sulfonamide] are 1 to 10 µM and 0.25 to 2 µM.
For `CCOc1ccc(-c2ccc3nc(N[C@H]4CCN(C(=O)[C@H](NC(=O)OC)C(C)C)C4)nc(NCC(F)(F)F)c3n2)cc1S(N)(=O)=O` [Example 266, methyl (R)-1-((S)-3-(6-(4-ethoxy-3-(aminosulfonyl)phenyl)-4-(2,2,2-trifluoroethylamino)pyrido[3,2-d]pyrimidin-2-ylamino)pyrrolidin-1-yl)-3-methyl-1-oxobutan-2-ylcarbamate] the same measures were 1 to 10 µM and below 0.1 µM.
On the same counts, the results for `NS(=O)(=O)c1cc(F)cc(CNc2nc(NC3(C(F)(F)F)CC3)c3nc(C#CC4CC4)ccc3n2)c1` [Example 63, 3-((6-(2-cyclopropylethynyl)-4-(1-(trifluoromethyl)cyclopropylamino)pyrido[3,2-d]pyrimidin-2-ylamino)methyl)-5-fluorobenzenesulfonamide] are above 10 µM and below 0.1 µM.
In the case of `CC(C)Oc1nc(NCc2ccc(-n3cncn3)cc2)nc2ccc(C#CC3CC3)nc12` [Example 308, N-(4-(1H-1,2,4-triazol-1-yl)benzyl)-6-(2-cyclopropyl-ethynyl)-4-isopropoxypyrido [3,2-d]pyrimidin-2-amine], in data set [1], the CC50 at 3 days is above 10 µM. The EC50 in data set [2] is 0.25 to 2 µM.
On to `Cc1ccc(-c2ccc3nc(N[C@H](C)c4ccc(S(N)(=O)=O)cc4)nc(NCC(F)(F)F)c3n2)cc1S(C)(=O)=O` [Example 152, 4-((R)-1-(6-(4-methyl-3-(methylsulfonyl)phenyl)-4-(2,2,2-trifluoroethylamino)pyrido[3,2-d]pyrimidin-2-ylamino)ethyl)benzene-sulfonamide], for which the CC50 at 3 days in data set [1] is above 10 µM. Also, the EC50 in data set [2] is below 0.1 µM.
On the same counts, the results for `NS(=O)(=O)c1cc(F)cc(CNc2nc(NC3(C(F)(F)F)CC3)c3nc(-c4ccc(F)nc4)ccc3n2)c1` [Example 77, 3-fluoro-5-((6-(6-fluoropyridin-3-yl)-4-(1-(trifluoromethyl)cyclopropylamino)pyrido[3,2-d]pyrimidin-2-ylamino)methyl) benzenesulfonamide] are above 10 µM and below 0.1 µM.
On the same counts, the results for `NS(=O)(=O)c1cc(CNc2nc(NCC(F)(F)F)c3nc(C#CC4CC4)ccc3n2)cc(C(F)(F)F)c1` [Example 278, 3-((6-(2-cyclopropylethynyl)-4-(2,2,2-trifluoroethylamino)pyrido[3,2-d]pyrimidin-2-ylamino)methyl)-5-(trifluoro-methyl)benzenesulfonamide] are above 10 µM and 0.1 to 0.25 µM.
On the same counts, the results for `CS(=O)(=O)Nc1cc(F)cc(CNc2nc(NC3(C(F)(F)F)CC3)c3nc(-c4ccc(F)cc4)ccc3n2)c1` [Example 107, N-(3-fluoro-5-((6-(4-fluorophenyl)-4-(1-(trifluoromethyl)cyclopropyl-amino)pyrido[3,2-d]pyrimidin-2-ylamino)methyl)phenyl)methane-sulfonamide] are above 10 µM and 0.25 to 2 µM.
In data set [1], `NS(=O)(=O)c1cc(-c2ccc3nc(NCc4ccc(-n5cncn5)cc4)nc(NC4(C(F)(F)F)CC4)c3n2)ccc1Cl` [Example 37, 5-(2-(4-(1H-1,2,4-triazol-1-yl)benzylamino)-4-(1-(trifluoromethyl)cyclopropyl-amino)pyrido[3,2-d]pyrimidin-6-yl)-2-chlorobenzenesulfonamide] showed a CC50 at 3 days of 1 to 10 µM. In data set [2], the EC50 is below 0.1 µM.
Molecule `CC1(Oc2nc(NCc3ccc(-n4cncn4)cc3)nc3ccc(-c4cccc(S(C)(=O)=O)c4)nc23)CC1` [Example 189, N-(4-(1H-1,2,4-triazol-1-yl)benzyl)-4-(1-methylcyclo-propoxy)-6-(3-(methylsulfonyl)phenyl)pyrido[3,2-d]pyrimidin-2-amine] registered a CC50 at 3 days in data set [1] of 1 to 10 µM. For the same molecule, the EC50 in data set [2] was below 0.1 µM.
In data set [1], `COCC#Cc1ccc2nc(NCc3cc(C(F)(F)F)cc(S(N)(=O)=O)c3)nc(NCC(F)(F)F)c2n1` [Example 282, 3-((6-(3-methoxyprop-1-ynyl)-4-(2,2,2-trifluoroethylamino)pyrido[3,2-d]pyrimidin-2-ylamino)methyl)-5-(trifluoro-methyl)benzenesulfonamide] gave a CC50 at 3 days above 10 µM. Also, the EC50 in data set [2] was in the range of 0.25 to 2 µM.
For `COc1ccc(-c2ccc3nc(NCc4ccc(S(N)(=O)=O)cc4)nc(NCC(F)(F)F)c3n2)cc1C(F)(F)F` [Example 228, 4-((6-(4-methoxy-3-(trifluoromethyl)phenyl)-4-(2,2,2-trifluoroethylamino)pyrido[3,2-d]pyrimidin-2-ylamino)methyl)benzene-sulfonamide] the same measures were above 10 µM and 0.25 to 2 µM.
